Results on three compounds are retold here after US20220073910A1, “A Cross-Linking Approach to Map Small Molecule-RNA Binding Sites in Cells” (priority 2019, published 2022).

Starred links: 1 amine or outer side, 2 acyl side, 3 side chain; linkers in the order of their positions; H or OH if unused. Non-standard residues stand in square brackets, D forms with d. Residues, ends and D or L forms follow the SMILES beside them. *: point of attachment. Biotinyl(3aR,4R,6aS) = O=C1N[C@@H]2[C@@H](CS[C@@H]2CCCCC(=O)*)N1; N(2-Aminoethyl)Gly = O=C(CN(CCN[*:3])[*:1])[*:2]; Chlorambucil = O=C(CCCc1ccc(N(CCCl)CCCl)cc1)*; Gly(N-propargyl) = C#CCNCC(=O)O; NPrGly = CCCNCC(=O)O

The test system of assay [1] is pri-miR-96. The following applies: in vitro, cited from earlier work; for pulldown of pri-miR-96 adducts with streptavidin beads: radioactively labeled pri-miR-96 RNA.
The subject of assay [2] is pri-miR-96. The assay can be described thus: Chem-CLIP-Map-Seq binding site mapping within pri-miR-96 in MDA-MB-231 TNBC cells. The assay is classed as cell-based. The following applies: MDA-MB-231 cells, 1000 nM. The text has this:
A—Scheme of amplification approach to identify small molecule binding site in pri-miR-96. B— In cellulis mapping of the binding site for compound 2 within pri-miR-96 in MDA-MB-231 TNBC cells. Percentages indicate the number of sequences observed terminating at the respective nucleotide adjacent to the percentage.
Given the enrichment of pri-miR-96 in the pulled down fraction and 2's pro-apoptotic properties, we mapped 2's binding site within pri-miR-96 in cells. We defined 2's cellular binding site within pri-miR-96. […] After reverse transcription, ssDNA adaptors were ligated to the cDNA, followed by which was cloned into NEB's pminiT 2.0 vector and sequenced. Mirroring the predicted and validated (via nuclease mapping^14) binding site, 2's binding site was localized to nucleotides that are proximal to pri-miR-96's Drosha site (FIG. 4B). In particular, the most occupied binding site observed is a C residue four nucleotides upstream of the UU internal loop bound by 1 (54%; highlighted in red in FIG. 4). Two other reactions sites were observed: (i) a G residue in the GG internal loop that binds 1 (14%); and (ii) a U residue 13 nucleotides upstream of the UU internal loop that is part of the Drosha processing site (24%). To support our cellular mapping experiments, we modeled 2 bound to pri-miR-96 (FIG. 4B). Indeed, the distance between 2's cross-linking module and the most reacted nucleotides match precisely.

For assay [3], the system named is pri-miR-96. The following applies: in cells, cited from earlier work.
The subject of assay [4] is miRNAs predicted to target FOXO1 mRNA. The assay is described as follows: Profiling of 15 miRNAs predicted by TargetScan to target FOXO1 3' UTR. The assay is classed as cell-based. The following applies: MDA-MB-231 cells. The procedure:
(§1) A—Effects of compounds 1 and 2 (50 nM) on mature miR-96 and pri-miR-96 levels. B—Effects of compounds 1 and 2 (50 nM) on FOXO1 protein expression. C— Profiling of miRNAs predicted to target FOXO1 mRNA by TargetScan in compound 2-treated MDA-MB-231 cells. D—Volcano plot profiling the effect of compound 2 on all miRNAs that are expressed in MDA-MB-231 cells (blue circles are miRNAs predicted to target FOXO1 mRNA by TargetScan). E—Effects of compounds 1, 2, and 3 on Caspase 3/7 activity, indicative of apoptosis, in MDA-MB-231 TNBC cells. F—Effects of compounds 1, 2, and 3 on Caspase 3/7 activity, indicative of apoptosis, in MCF-10A normal breast epithelial cells.
(§2) Since miR-96 suppresses apoptosis in cancer cells by repressing the translation of Forkhead box 01 (FOXO1) transcription factor,^15 the effects of 1, 2, and 3 on FOXO1 protein levels were measured in MDA-MB-231 cells. […] To validate that the increase in FOXO1 levels was mediated by inhibition of miR-96, we studied the effects of 1 and 2 on all 15 miRNAs predicted to target the FOXO1 3′ untranslated region (UTR) by TargetScan (FIG. 3C). […] To further probe 2's selectivity for pri-miR-96, we performed an unbiased profiling experiment on 373 miRNAs expressed in MDA-MB-231 TNBC cells (based on Qiagen miRNA Human miRbase profiler HC).

The next assay concerns MCF-10A cells. The assay can be described thus: Caspase 3/7 activity (apoptosis) in MCF-10A normal breast epithelial cells. The assay is classed as cell-based. The following applies: healthy breast epithelial MCF-10A cells. The procedure: as §1
(§3) We next studied the ability of 1 and 2 to trigger apoptosis, i.e., reverse phenotype, in MDA-MB-231 by measuring Caspase activity. […] Compound 3 had no effect on Caspase activity, as expected. […] Thus, the covalent compounds show relative selectivity for cancerous over healthy breast cells.

The test system of a further assay is FOXO1 protein. The assay is described as follows: FOXO1 protein expression in MDA-MB-231 cells. Format: cell-based. The following applies: 50 nM. The method, then: as §1, §2
The subject of the next assay is MDA-MB-231 TNBC cells. The assay can be described thus: Caspase 3/7 activity (apoptosis) in MDA-MB-231 TNBC cells. Format: cell-based. The following applies: MDA-MB-231 cells. The method, then: as §1, §3
For assay [5], the system named is pri-miR-96 (Drosha processing). The assay can be described thus: RT-qPCR of mature miR-96 and pri-miR-96 levels in MDA-MB-231 TNBC cells. The assay is classed as cell-based. Conditions: MDA-MB-231 cells, 50 nM. The method, then: as §1
Background: In qPCR the cycle at which signal appears reflects the starting amount.

For assay [6], the system named is 373 miRNAs expressed in MDA-MB-231 TNBC cells. The assay can be described thus: Unbiased profiling of 373 miRNAs expressed in MDA-MB-231 TNBC cells. Format: cell-based. The following applies: Qiagen miRNA Human miRbase profiler HC. The method, then: as §1, §2

For the compound `CCCN(CC(=O)N(CC(=O)N(CCNC(=O)CCCC[C@H]1SC[C@H]2NC(=O)N[C@H]21)CC(N)=O)Cc1cn(CCCNC(=O)CCCOc2c(C(C)(C)C)cc(-c3nc4cc(N5CCN(C)CC5)ccc4[nH]3)cc2C(C)(C)C)nn1)C(=O)CN(CCNC(=O)CCCc1ccc(N(CCCl)CCCl)cc1)C(=O)CCCOc1cccc(-c2nc3ccc(-c4nc5cc(N6CCN(C)CC6)ccc5[nH]4)cc3[nH]2)c1` [compound 2], in the assay with pri-miR-96 [1], the “pulldown of pri-miR-96 adducts with streptavidin beads” value is recorded as “Specific engagement”. For the same compound, in the assay with pri-miR-96 [2], the “sequences terminating at reaction site: C residue four nucleotides upstream of the UU internal loop” value is on record as 54%, the “sequences terminating at reaction site: G residue in the GG internal loop” value is 14% and the “sequences terminating at reaction site: U residue 13 nucleotides upstream of the UU internal loop (Drosha processing site)” value is on record as 24%. For the same compound, the “enrichment of pri-miRNA-96 in the pulled down fraction” value with pri-miR-96 [3] (compared to sample prior to incubation with streptavidin beads, RT-qPCR) was 5 fold. For the same compound, in assay [4], the “effect on all 15 miRNAs predicted to target the FOXO1 3' UTR” value was “Only miR-96 was inhibited significantly”. For the same compound, the “Caspase activity indicative of apoptosis” value in the assay on MCF-10A cells is given as “neither 1 nor 2 had any effect”. In the assay with FOXO1 protein, the FOXO1 protein expression entry is “enhanced the expression of FOXO1 protein”. Moreover, in the assay on MDA-MB-231 TNBC cells, the “Caspase activity indicative of apoptosis” value is “increased Caspase activity”. In assay [5], the “increase in pri-miR-96 abundance” value is listed as “ca. 1.5 fold” and the “mature miR-96 levels” value is “reduced to a similar extent as the parent compound 1”. In addition, the “selectivity profiling on 373 miRNAs (volcano plot)” value in assay [6] was “miR-96 was the most affected”.
With `C#CCN(CC(=O)N(CCNC(=O)CCCC[C@H]1SC[C@H]2NC(=O)N[C@H]21)CC(N)=O)C(=O)CN(CCC)C(=O)CN(CCNC(=O)CCCc1ccc(N(CCCl)CCCl)cc1)C(C)=O` [compound 3] (Ac-[N(2-Aminoethyl)Gly](Chlorambucil)[NPrGly][Gly(N-propargyl)][N(2-Aminoethyl)Gly](Biotinyl(3aR,4R,6aS))-NH2), the “pulldown of pri-miR-96 adducts with streptavidin beads” value with pri-miR-96 [1] was “no pulldown”. Further, the “Caspase activity indicative of apoptosis” value with MDA-MB-231 TNBC cells is “no effect”. For the same compound, the “mature miR-96 levels” value in assay [5] is “No effect”.
On to `CCCN(CC(=O)N(CCC)CC(=O)N(CC(N)=O)Cc1cn(CCCNC(=O)CCCOc2c(C(C)(C)C)cc(-c3nc4cc(N5CCN(C)CC5)ccc4[nH]3)cc2C(C)(C)C)nn1)C(=O)CCCOc1cccc(-c2nc3ccc(-c4nc5cc(N6CCN(C)CC6)ccc5[nH]4)cc3[nH]2)c1` [compound 1, Targaprimir-96], for which the “competition of pri-miR-96 pulldown by 2 (C-Chem-CLIP)” value with pri-miR-96 [1] (constant 2 (1000 nM), increasing amounts of 1) is 1-dependent decrease in the amount of RNA pulled down by 2. Further, in the assay on pri-miR-96 [3] (increasing concentration of 1), the “competition of pri-miR-96 pulldown (cellular C-Chem-CLIP)” value is listed as “decreased as a function of the concentration of 1”. In [4], the “effect on all 15 miRNAs predicted to target the FOXO1 3' UTR” value is “Only miR-96 was inhibited significantly”. Also, the “Caspase activity indicative of apoptosis” value in the assay with MCF-10A cells is listed as “neither 1 nor 2 had any effect”. Further, the FOXO1 protein expression result with FOXO1 protein is “enhanced the expression of FOXO1 protein”. In addition, the “Caspase activity indicative of apoptosis” value in the assay on MDA-MB-231 TNBC cells is given as “increased Caspase activity”. Besides, in assay [5], the “increase in pri-miR-96 abundance” value is “ca. 1.5 fold” and the “mature miR-96 levels” value is recorded as “reduced”.
